Source: patent US9586994B2, “CD44V6-derived peptides for treating breast cancer” (KARLSRUHER INSTITUT FÜR TECHNOLOGIE, priority 2012, dated 2017)

Tests used:
CD44v6 [1] = assay: Peptide blocking of ErbB ligand- or HGF-induced Erk-kinase phosphorylation in HT29 cells (Western blot); type: cell-based, human; details: peptide 100 ng/ml; for EGF-dependent Erk-phosphorylation: EGF 20 ng/ml
Protocol: (§1) 3×10^5 were seeded per well of a 6-well plate and serum-starved for 24 hours. Afterwards the medium inside of each well was reduced to 1 ml and the respective peptide (v6 (both peptides of SEQ ID No.: 2 and 6 were tested), or ctrl peptide) was added at a concentration of 100 ng/ml. The cells then were incubated together with the peptide at 37° C. for 5 mins. Ligand concentration for all peptide blocking experiments was 20 ng/ml.
The cells were incubated with the growth factors specified in the particular experiment. Except for the peptide blocking and migration assays, ligand concentration was 5 ng/ml at all times. Prior to induction the cells were treated as indicated in the results section.
(§2) To assay protein expression via Western blot cells were washed 1× with PBS and afterwards lysed in 2×Laemmli sample buffer (160 mM Tris-HCl pH 6.8, 4% SDS, 16% glycerol, 0.1M DTT, 0.01% bromphenol blue). The sample was sheared through a 26 gauge needle. In succession the lysates were boiled for 5 mins at 99° C. in order to denature the proteins in the sample and then spun down at 10 000 rmp for 1 min Eventually the samples were loaded onto an SDS-PAGE gel.
In order to test whether CD44v6 plays a role in the activation of the ErbB family of receptors, a peptide blocking experiment using the 14mers of SEQ ID No. 6 was performed in HT29 cells. The fact that this cell line expresses all ErbB receptors (Wu et al, 2009, see references) and several CD44 variants including also exon v3 and v6 (Orian-Rousseau et al., 2002, see references) makes it a suitable tool to evaluate the co-receptor function of CD44 proteins for the ErbB family. The first ErbB1-ligand that was evaluated was EGF. […] The cells were serum starved for 24 hours and induced with EGF. Phosphorylation of the Erk-Kinase, a downstream target of the ErbB receptor family, was used as a read-out for ErbB receptor activation. HGF was used as a control to test the blocking efficiency of the CD44v6 peptide since the induction of the Erk kinase through Met is dependent on CD44v6 (Orian-Rousseau et al., 2002, see references).
Besides EGF, five other ligands, namely AR, BC, ER, HB-EGF, and TGFα, can activate the ErbB1 receptor. EGF, AR and TGFα bind to either an ErbB1-homo- or an ErbB1/2-heterodimer. In addition to these dimers, BC, ER and HB-EGF can also bind to an Erb4/4 homo- or an ErbB2/4 heterodimer. It was investigated whether the activation of the ErbB receptors by the indicated ligands is also dependent on CD44v6. HT29 cells were serum-starved for 24 hours and pre-treated with the v6-specific or a control peptide. They were then induced with the indicated ErbB ligands. Erk-kinase phosphorylation was used as a read-out for receptor activation.
For this purpose HT29 cells were serum-starved for 24 hours and pre-treated with the v6-specific or a control peptide. They were then induced with the indicated ErbB ligands. Erk-kinase phosphorylation was used as a read-out for receptor activation. All ligands could activate the Erk-kinase. […] These ligands are independent of CD44v6 for their induction of the ErbB receptors. This is especially striking, since EGF and TGF-α address the same receptor pairs (ErbB1/1 or ErbB1/2).

CD44v6 [2] = molecular target: T1, CD44v6 (Homo sapiens, UniProt P16070); assay: Peptide blocking of EGF/TGFα-induced Erk phosphorylation in MCF7 cells (Western blot); type: cell-based; details: peptide 100 ng/ml; for EGF-induced activation of the ErbB receptors (Erk phosphorylation): MCF7, serum-starved, EGF 20 ng/ml
T1 construct: endogenous in cells; host or cells: MCF7; MCF10A
Protocol: as §1, §2
To test whether CD44v6 acts as a co-receptor in MCF7 or MCF10A cells, a peptide blocking experiment using peptides of SEQ ID NO: 6 was conducted. The cells were serum-starved for 24 h and then pre-incubated with a v6 peptide or an unspecific control peptide. Then, the cells were induced with EGF or HGF as a control. As a read-out for ErbB-activation, the phosphorylation of the Erk-kinase was used.

CD44v6 [3] = assay: HGF-induced activation of Met and Erk in HeLa cells (Western blot); type: cell-based, human
Protocol: FIG. 28: A: Activation of Met and signal transduction induced by HGF depends on CD44v6 in L3.6pl cells. L3.6pl cells were treated with the human v6 peptide (human v6 14mer) or the rat v6 peptide as control prior to induction with 10 ng/ml HGF. Activation of Met and ERK was determined in western blot. The numbers refer to the fold induction. The experiment was repeated at least 5 times. B: Activation of c-Met and signal transduction induced by HGF depends on CD44v6 HeLa cells. Starved HeLa cells respectively HT29 cells were incubated with the v6 peptide (human v6 14mer) or a control peptide for 10 minutes at 37° C. and then induced with 25 ng/ml of HGF for the indicated time points. Cells were then either lysed and the lysates were subjected to Western Blot analysis for phospho-Met and Met. C: Activation of c-Met and signal transduction induced by HGF depends on CD44v6 in HT29 cells. HGF-induced c-Met and Erk phosphorylation in HT29 was determined as described above using phospho-specific antibodies. […]
The contribution of CD44v6 to Met signaling in the human epithelial pancreatic cancer cells L3.6pl (derived from Colo 357), the cervix carcinoma cells HeLa and the colon cancer cells HT29 were analysed using the CD44v6 peptide (v6 14mer; v6 5mer tested as well, data not shown).

L3.6pl cells = assay: Human VEGF in cell culture supernatant of L3.6pl cells (Quantikine immunoassay); type: cell-based; details: peptide 200 ng/ml in the culture medium, 5 days
Protocol: Determination of human HGF and VEGF levels in cell culture medium of L3.6pl cells were performed using the Quantikine Human HGF Immunoassay and Quantikine Human VEGF Immunoassay from Roche (Mannheim, GER) and R&D Systems (Wiesbaden, Germany) For this purpose 3×10^6 cells were cultured for 5 days in a 15 cm plate in the presence of the respective peptides as indicated. The supernatant by centrifugation (20 ml) was centrifuged (1200 rpm) and the assay was performed according to manufacturer's instructions.

T1 sequence (P16070 21-742): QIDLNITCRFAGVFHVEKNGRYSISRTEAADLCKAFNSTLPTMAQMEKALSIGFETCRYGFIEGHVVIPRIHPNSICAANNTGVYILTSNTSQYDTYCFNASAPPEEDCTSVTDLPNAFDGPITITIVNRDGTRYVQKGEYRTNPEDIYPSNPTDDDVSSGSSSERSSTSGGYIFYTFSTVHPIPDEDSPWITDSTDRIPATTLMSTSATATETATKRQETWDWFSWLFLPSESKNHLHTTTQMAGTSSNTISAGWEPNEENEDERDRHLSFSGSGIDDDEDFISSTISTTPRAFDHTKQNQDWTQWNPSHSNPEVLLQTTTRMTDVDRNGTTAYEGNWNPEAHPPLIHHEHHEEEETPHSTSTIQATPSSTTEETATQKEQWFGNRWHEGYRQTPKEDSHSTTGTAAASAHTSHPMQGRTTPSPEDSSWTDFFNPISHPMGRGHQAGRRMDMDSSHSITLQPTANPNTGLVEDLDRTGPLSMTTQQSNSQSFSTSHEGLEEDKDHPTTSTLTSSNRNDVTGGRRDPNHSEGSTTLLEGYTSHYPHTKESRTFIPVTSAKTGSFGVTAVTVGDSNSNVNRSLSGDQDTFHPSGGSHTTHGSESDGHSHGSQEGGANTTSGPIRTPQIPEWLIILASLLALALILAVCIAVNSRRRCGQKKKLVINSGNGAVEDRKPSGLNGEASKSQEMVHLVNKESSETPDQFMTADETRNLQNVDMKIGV

Q: Which “EGF-dependent Erk-phosphorylation” value (CD44v6 [1]; HT29, serum-starved, 5 min pre-incubation, listed as CD44v6 peptide) does the source give for “KEQWFGNRWHEGYR [SEQ ID NO: 6, human CD44v6 14mer peptide]” here?
A: Its value is “could be inhibited”.

Q: What about the “EGF-dependent Erk-phosphorylation” value (CD44v6 [1]; HT29, serum-starved, 5 min pre-incubation, listed as human v6 14mer) of the same sequence?
A: Its value is “inhibited”.

Q: And the “HGF-dependent Erk-phosphorylation” value (CD44v6 [1]; HT29, serum-starved, 5 min pre-incubation, HGF as control ligand)?
A: Its value is “could be inhibited”.

Q: And the “AR-induced activation of the ErbB receptors (Erk phosphorylation)” value (CD44v6 [1]; HT29, AR 20 ng/ml)?
A: Its value is “could not be inhibited”.

Q: And the “BC-induced activation of the ErbB receptors (Erk phosphorylation)” value (CD44v6 [1]; HT29, BC 20 ng/ml)?
A: Its value is “could not be inhibited”.

Q: What about the “ER-dependent Erk-phosphorylation” value (CD44v6 [1]; HT29, ER 20 ng/ml) of the same sequence?
A: The value was “inhibited”.

Q: And the “HB-EGF-induced activation of the ErbB receptors (Erk phosphorylation)” value (CD44v6 [1]; HT29, HB-EGF 20 ng/ml)?
A: Its value is “could not be inhibited”.

Q: What about the “TGFα-induced activation of the ErbB receptors (Erk phosphorylation)” value (CD44v6 [1]; HT29, TGFα 20 ng/ml) of the same sequence?
A: The value was “could not be inhibited”.

Q: What about the “EGF-induced activation of the ErbB receptors (Erk phosphorylation)” value (CD44v6 [2]) of the same sequence?
A: The value was “blocking of Erk phosphorylation”.

Q: And the “EGF-induced activation of the ErbB receptors (Erk phosphorylation)” value (CD44v6 [2]; listed as CD44v6-specific peptide)?
A: Its value is “could be blocked”.

Q: And the “Erk phosphorylation upon TGFα induction” value (CD44v6 [2]; MCF7, TGFα 20 ng/ml)?
A: The value was “not upon TGFα induction”.

Q: And the “HGF-induced activation of downstream target Erk” value (CD44v6 [3]; peptide before induction with HGF)?
A: The value was “able to prevent activation”.

Q: And the “HGF-induced activation of Met” value (CD44v6 [3]; starved, peptide 10 min 37° C., HGF 25 ng/ml)?
A: Its value is “able to prevent activation”.

Q: And the “hVEGF secretion by L3.6pl cells” value (L3.6pl cells)?
A: The value was “can be blocked”.
